Legend:
[1] = system: As #128; assay: Two-site assay design: peptides pre-incubated with As #128 coated plate; assay type: binding, sheep; settings: non-biotinylated peptides 0.1-1 micromolar
Method: On the other hand, the IFMA design is based on the total amount of inhibin bound which is a combination of both antibody affinity and concentration. In order to establish to what extent epitopes to these peptides contribute to the overall IFMA, the following two-site assay designs were used.
(i) Peptides #5, #20 and #30 (0, 0.1-1 micromolar) were incubated with the As #128 coated plate for 1.5 hours at RT and the wells washed. The highest dose of peptide used was saturating.
(ii) Hr-Inhibin was then added as a saturating or near saturating dose to the As #128 coated plate and incubated for 2 hours at room temperature and the plate washed.
(iii) Biotinylated As #41 was added to the above wells and incubated for 2 hours at RT. Plates were then washed and counted.

[2] = system: As #1989; assay: RIA (Assay 2): competition with iodinated inhibin for As #1989; assay type: binding, rabbit; settings: for As#1989 ED50: 50% fall in binding of iodinated inhibin; for ED50 values As#1989: non-biotinylated peptides, hr-inhibin A as standard
Description: (§1) This assay was used to determine which peptides compete with iodinated 30 kDa inhibin for As #41, #128 and #1989 (used in the original inhibin RIA, Lapphorn et al., 1989, supra) in a RIA format. This assay identifies those peptides that bind to inhibin-binding antibodies in the antiserum and provides a stricter affinity and specificity assessment in identifying the appropriate epitopes than that found with Assay 1. The competition between peptide and hr-inhibin (used as the standard) was assessed from their ED50 values. The RIA consisted of the competition of iodinated inhibin and either hr-inhibin reference preparation, individual peptides or pools from the 4 peptide regions, with As #41, #128 and in some instances, As #1989. The peptides/inhibin/iodinated inhibin and antisera (at a prescribed dilution) were incubated overnight at 4° C. using standard methodologies. The antibody-bound iodinated inhibin was immunoprecipitated with the addition of an anti-sheep IgG serum raised in goats and the radioactivity was measured in a gamma counter. The concentration of peptide that gives a 50% fall in binding of iodinated inhibin (ED50) was determined and this value was used to give a measure of the affinity of the peptide for the antiserum. This methodology consisted of determining the ED50 of the peptide in the RIA using iodinated human recombinant inhibin as tracer with either As #41, As #128 or As #1989 and graded doses of either hr-inhibin or peptide as described in Example 2.

[3] = system: As #128; assay: RIA (Assay 2): competition with iodinated inhibin for As #128; assay type: binding, sheep; settings: for As#128 ED50: biotinylated peptides, 50% fall in binding of iodinated inhibin; for ED50 values As#128: non-biotinylated peptides, hr-inhibin A as standard
Description: as §1

[4] = system: As #41; assay: Two-site assay design variation: biotinylated #41 pre-incubated with peptide; assay type: binding, sheep; settings: non-biotinylated peptides 0.1-1.0 micromolar
Method: (iv) In a variation to the above design, biotinylated #41 was pre-incubated with peptide (0.1-1.0 micromolar) for 1.5 hours at room temperature and then added to the As #128 coated plate pre-bound with inhibin as for (i)-(iii). […] Combination of peptide #5 and #30 led to 74% decrease.

[5] = system: As #128; assay: Competitive 2-site assay (Assay 3), approach (a); assay type: binding, sheep; set-up: key: +++++ major contribution; + minor contribution; settings: relative contribution
Description: (§2) This assay was developed to establish the relative importance of the individual peptides and peptide pools (identified as epitopes in Assays 1 and 2) in the sandwich antibody format used in the IFMA with As #128 as capture antibody and As #41 as detection antibody. Two approaches (a and b) were considered, Approach (a) explores the cross-reaction of peptides with inhibin for the immobilized As #128 while Approach (b) assesses their cross-reaction with inhibin for As #41.
Approach (a). The biotinylated peptide pools and/or individual peptides at various concentrations, in combination with a fixed concentration of hr-inhibin, were incubated for 2 hours with As #128-coated plates. The plates were then washed to remove any unbound material. Iodinated As #41 was then added to bind to the bound hr-inhibin, the plates washed and the bound radioactivity was measured in a gamma counter. The counts measured were proportional to the amount of hr-inhibin bound to both antisera. The possibility that a peptide contained two epitopes capable of linking As #128 and #41 was assessed in the absence of added hr-inhibin.

[6] = system: As#128 and/or As#41; assay: Inhibin IFMA with pre-immunoabsorption of antisera by peptides; assay type: binding, sheep
Description: This IFMA is used in the measurement of inhibin in serum from women with ovarian cancer and is presented at this juncture as a reference to the following procedures. The IFMA is a sandwich antibody assay in 96-well microtiter plates. The capture antiserum is As #128 and the labeled antiserum As #41, both raised in sheep to the alpha subunit of human inhibin. Sheep As #128 was also boosted with human recombinant 30-kDa inhibin. The microtiter plates were coated with a caprylic acid IgG cut of antiserum #128. Inhibin standard and serum samples were added and incubated for 2 hours at room temperature. A biotinylated antiserum (As #41) which has been immunopurified by absorption to a column of bovine (alpha)C subunit fusion protein (as previously described, Robertson et al., 1997, supra) followed by elution with a glycine (pH 2.5) buffer, was added to bind to the antibody-bound inhibin (2-hour incubation at room temperature). Fluorescently (Eu) labeled-streptavidin that has a high affinity for biotin is added (30 minutes at room temperature) and the Eu-bound streptavidin is counted in a time-resolved fluorimeter. The Eu measured is proportional to the inhibin bound by the two antisera.
As another approach, the competition of combinations of peptides at a maximum saturating dose was assessed in the IFMA (FIGS. 7-9). […] This suppression in binding provides a measure of the contribution of that particular epitope to the assay.

[7] = system: As #128; assay: Solid phase assay (Assay 1): biotinylated peptides binding to As #128; set-up: species or system sheep; key: +++++ major contribution; + minor contribution; settings: relative contribution
Method: This assay is a broad screen of the binding of the 31 biotinylated peptides to As #41 and #128 as recommended by Chiron Mimotopes.
The biotinylated peptides were initially bound to streptavidin-coated 96-well plates (2 hours at room temperature), antiserum #41 or #128 was then added (2 hours room temperature) to bind to the peptides. Detection of antiserum binding was assessed by a further incubation with an anti-ovine IgG serum labeled with the enzyme, horseradish peroxidase. The enzyme activity was assessed by conversion of a colorless substrate to a colored product that is detected in a spectrophotometer. The enzyme activity measured was proportional to the extent of the binding of the peptides.

[8] = system: As #41; assay: RIA (Assay 2): competition with iodinated inhibin for As #41; assay type: binding, sheep; settings: for As#41 ED50: biotinylated peptides, 50% fall in binding of iodinated inhibin; for ED50 values As#41: non-biotinylated peptides, hr-inhibin A as standard
Description: as §1

[9] = system: PO-14; assay: RIA of Set 2 peptides with PO-14; assay type: binding, mouse; set-up: key: ΦΦΦ strong effect; +, Φ weak effect; a) limited binding; settings: Set 2 biotinylated peptides 0.8 and 0.08 micromoles/L
Method: (§3) The binding of the 41 biotinylated peptides as set forth in Table 7 (peptide set 2) to the mouse monoclonal antibodies (PO# series) was assessed as follows: b) Assay 2 (radioimrnunoassay, RIA) using iodinated human inhibin A as tracer. Mabs (at an appropriate dilution, see above) were incubated with iodinated human recombinant inhibin in the presence of biotinylated peptides (0.8 and 0.08 micromoles/L final concentration) overnight at room temperature.

[10] = system: PO-12; assay: RIA of Set 2 peptides with PO-12; assay type: binding, mouse; set-up: key: ΦΦΦ strong effect; +, Φ weak effect; a) limited binding; settings: Set 2 biotinylated peptides 0.8 and 0.08 micromoles/L
Method: as §3

[11] = system: PO-14; assay: Solid phase binding of Set 2 peptides to PO-14; set-up: species or system mouse; key: +++; ΦΦΦ strong effect; +, Φ weak effect; settings: Set 2 biotinylated peptides 24 micromoles/L
Method: (§4) The binding of the 41 biotinylated peptides as set forth in Table 7 (peptide set 2) to the mouse monoclonal antibodies (PO# series) was assessed as follows:
(§5) a) Assay 1 (solid phase assay). The assay was undertaken as outlined in assay 1 of Example 2. Biotinylated peptides (24 micromoles/L) were initially bound to streptavidin-coated plates. Mab (at an appropriate dilution to give a detectable response, 1:1000, 1:10000 dilution of the culture medium) was then added and incubated for 1.5 hr. The amount of bound Mab was determined using horseradish peroxidase-bound anti-mouse IgG serum and enzyme activity detected at 450-630 nm using an ELISA plate reader.

[12] = system: PO-12; assay: Solid phase binding of Set 2 peptides to PO-12; set-up: species or system mouse; key: +++; ΦΦΦ strong effect; +, Φ weak effect; settings: Set 2 biotinylated peptides 24 micromoles/L
Method: as §4, §5

[13] = system: As #41; assay: Competitive 2-site assay (Assay 3), approach (b); assay type: binding, sheep; settings: biotinylated peptide pools or peptides incubated with iodinated As #41
Description: as §2
Approach (b). In this approach, the competition of peptides with the As #41 antiserum using the sandwich antibody format was assessed. Hr-Inhibin was initially incubated with the As #128 coated wells for 1 hour at room temperature. The biotinylated peptide pools and/or individual peptides were incubated together with iodinated As #41 for 1 hour and then added to the inhibin bound As #128 coated plates and incubated for 2 hours at room temperature. Plates were then washed to remove any unbound material and the resulting activity was measured in the gamma counter.

[14] = system: PO-22; assay: Solid phase binding of Set 2 peptides to PO-22; set-up: species or system mouse; key: +++; ΦΦΦ strong effect; +, Φ weak effect; settings: Set 2 biotinylated peptides 24 micromoles/L
Method: as §4, §5

[15] = system: R1; assay: Solid phase binding of Set 2 peptides to R1; set-up: species or system mouse; key: +++; ΦΦΦ strong effect; +, Φ weak effect; settings: Set 2 biotinylated peptides 24 micromoles/L
Method: as §4, §5

[16] = system: R1; assay: RIA of Set 2 peptides with R1; assay type: binding, mouse; set-up: key: ΦΦΦ strong effect; +, Φ weak effect; a) limited binding; settings: Set 2 biotinylated peptides 0.8 and 0.08 micromoles/L
Method: as §3

[17] = system: PO-22; assay: RIA of Set 2 peptides with PO-22; assay type: binding, mouse; set-up: key: ΦΦΦ strong effect; +, Φ weak effect; a) limited binding; settings: Set 2 biotinylated peptides 0.8 and 0.08 micromoles/L
Method: as §3

[18] = system: PO-6; assay: Solid phase binding of Set 2 peptides to PO-6; set-up: species or system mouse; key: +++; ΦΦΦ strong effect; +, Φ weak effect; settings: Set 2 biotinylated peptides 24 micromoles/L
Method: as §4, §5

[19] = system: PO-14; assay: RIA of Set 2 peptides with PO-14; assay type: binding, mouse; settings: Set 2 biotinylated peptides 0.8 and 0.08 micromoles/L
Method: as §3

| Substance | suppression in binding with As #128 [1] | As#1989 ED50 ([2]; biotinylated peptides) | ED50 values As#1989 [2] | As#128 ED50 [3] | ED50 values As#128 [3] | inhibition with biotinylated #41 pre-incubated with peptide [4] | As#41 ED50 [8] | ED50 values As#41 [8] | PO-14 RIA [9] | PO-12 RIA [10] | PO-14 SPB [11] | PO-12 SPB [12] | also measured |
| --- | --- | --- | --- | --- | --- | --- | --- | --- | --- | --- | --- | --- | --- |
| SGSG PNLSLPVPGAPPTP [Peptide 20] | 23% | >2500 nM | >5000 nM | 20 nM | 150 nM | no inhibition | 3600 nM | >5000 nM | – | – | – | – | #128 2-site competitive assay Assay 3 [5]: +; % suppression at 2ng inhibin ([6]; As#128 coating antibody pre-absorbed with peptide(s), As#41 label: buffer): 13%; #128 Antibody screen Assay 1 [7]: + |
| SGSG PYSLLPGAQPCCAA [Peptide 24] | – | >2500 nM | – | 900 nM | – | – | 6200 nM | – | ΦΦΦ | ΦΦΦ | +++ | +++ | – |
| SGSG QPCCAALPGTMRPL [Peptide 26] | – | >2500 nM | – | 625 nM | – | – | 1000 nM | – | ΦΦΦ | ΦΦΦ | +++ | +++ | – |
| SGSG RTTSDGGYSFKYET [Peptide 30] | no suppression at all | <10 nM | 2500 nM | 600 nM | >5000 nM | 25-30% | 2500 nM | >5000 nM | – | – | – | – | ED50 with As #1989 ([2]; biotinylated peptides): < 10 nM; affinity to rabbit antiserum #1989 ([2]; in words): high affinity; blocking of As #41 binding to the inhibin-As#128 complex [13]: 50%; % suppression at 2ng inhibin ([6]; As#41 label pre-absorbed with peptide, As#128 coating antibody: buffer): 28% |
| SGSG STPLMSWPWSPSAL [Peptide 3] | – | >2500 nM | – | 38000 nM | – | – | – | – | – | – | – | – | PO-22 SPB [14]: +++; R1 SPB [15]: +++; R1 RIA [16]: ΦΦΦ; PO-22 RIA [17]: ΦΦΦ; PO-6 SPB [18]: +++ |
| SGSG TPAQPYSLLPGAQP [Peptide 23] | – | >2500 nM | – | 500 nM | – | – | 6200 nM | – | – | ΦΦΦ | +++ | +++ | PO-14 RIA [19]: ΦΦ |
